From patent US8658684B2, “Pharmaceutical composition and its use in the preparation of a medicament for the treatment of cerebrovascular diseases” (Jiangsu Simcere Pharmaceutical R & D Co., Ltd., priority 2008, dated 2014)

What was measured:
[1] = tested on: MCAO cerebral ischemia/reperfusion model rats; experiment: Middle cerebral artery occlusion (MCAO) cerebral ischemia/reperfusion model, internal carotid thread method (Example 17); assay type: in vivo, Wistar rats; conditions: Edaravone+natural borneol total 0.75 mg/kg, Nimodipine 0.4 mg/kg single dosage, mean ± SD, n=8
Description: 1.2 Drugs and Reagents: Edaravone+natural borneol for injection of Examples 5, 8 and 9.
Middle cerebral artery occlusion (MCAO), a cerebral ischemia/reperfusion model, was prepared using the internal carotid thread method. Animals were anesthetized with 10% chloral hydrate (3.5 mL/kg), and then fixed on the operation table in prone position. The skin was disinfected and the neck was incised from the midline. Right common carotid, external carotid and internal carotid were separated, and vagus nerve was separated carefully. The external carotid was ligated and severed. Moved forward along the internal carotid, and then pterygopalatine artery was ligated. The proximal part of common carotid was clamped and a cut was made at the distal end of the external carotid ligature. A nylon thread with the outer diameter of 0.285 mm was inserted into the cut, through the branch of common carotid and then into internal carotid slowly until a slight resistance was met (about 20 mm distance from the divergence point). […] Cerebral blood flow was monitored by using laser Doppler cerebral flowmetry. After ischemia in the right brain for 2.0 h, the nylon thread was withdrawn slowly and then blood supply was recovered for reperfusion. The scalp was sutured and disinfected. In the sham group, only the blood vessels were separated without the insertion of a nylon thread. During the operation, rat heating plate and desk lamp with 60 W were used to keep the body temperature of rats at 37.0±0.5° C. […]
Neurological deficit scoring: neurological deficit symptoms were evaluated according to modified Bederson scoring system of 5-point. Neurological deficit symptoms after cerebral trauma in rats were evaluated by using single-blinded method. That is, the experiment designer labeled the animals in groups, while the experiment performer who scored neurological deficit symptoms were blinded for animals grouping. […]

[2] = tested on: focal cerebral ischemia reperfusion model rats; experiment: Focal cerebral ischemia reperfusion model in rats, intraperitoneal dosing (Example 16); assay type: in vivo, Wistar rats; conditions: for Cerebral infarction size (%): 2 h ischemia, 24 h reperfusion, i.p. twice (30 min before ischemia, 12 h after reperfusion), combination 0.5+0.25 mg/kg, control 35.7 ± 7.52; for Cerebral infarction size (%) / neurological deficit score (points) / Cerebral water content (%): Edaravone 1.0 mg/kg, natural borneol 0.5 mg/kg, mean ± SD; for neurological deficit score (points): Longa 5-point scoring 24 h after reperfusion, control 3.1 ± 1.05; for neurological deficit score (points) / Cerebral water content (%): combination 0.5+0.25 mg/kg i.p. twice; for Cerebral water content (%): dry and wet method after ischemia/reperfusion, sham 78.41, control 82.19; for cerebral edema / cerebral water content compared with control group: single drugs P<0.05, combination P<0.01; for effect on symptoms of neurological deficits: versus control group, doses as Table 1
Description: 1.1 Animals: healthy male Wistar rats weighing 280-320 g.
1.2 Drugs and Reagents: Edaravone for injection (2 mg/mL) of Example 1, natural borneol injection (2 mg/mL) of Example 3 and Edaravone+natural borneol injection of Example 5.
Main steps are described as follows. Rats were anesthetized with 10% chloral hydrate (350 mg/kg, i.p.). Right external carotid was separated, ligated and severed. A nylon thread with rounded tip was inserted slowly for about 18 mm in depth into the residual end of right external carotid and through common carotid and internal carotid to induce ischemia by blocking the origin of middle cerebral artery. After ischemia for 2 h, the nylon thread was removed for reperfusion for 24 h. Animals in the sham group were treated identically to those in the model group, except that a nylon thread was just used to separate the artery. Manifestation of Homer's symptom and opposite lateral body dyskinesia after animal revival means a successful modelling.
Experimental animals were randomly divided into five groups, including sham group, control group and drug groups. Animals in drug groups were intraperitoneally injected twice, 30 min before ischemia and 12 h after reperfusion. Animals in sham group and control group were each injected with equal volume of normal saline instead.
Neurological deficit scoring: Behavioral evaluation was performed 24 h after reperfusion according to Longa 5-point scoring system.
Determination of cerebral infarction size: Animals were decapitated to get the brain after the last neurological deficit scoring. Rhinencephalon, lower brain stem and cerebella were removed, and the remaining brains were immediately weighted to obtain wet weights. The brains were sectioned coronally into five slices with substantially identical thickness on ice, then incubated in 2,3,5-triphenyl tetrazolium chloride for 30 min at 37° C. Normal brain tissues appeared rose, while infarction areas appeared white. Next, brain slices were fixed in 10% formaldehyde, and white tissues were carefully removed and weighed. Infarction size was determined by the percentage of infracted tissue weight in the total cerebral weight.
Determination of cerebral water content: Cerebral water contents were determined by dry and wet method. Animals were sacrificed to get the whole brain. Rhinencephalon, lower brain stem and cerebella were removed and the wet weight of the remaining brains was determined immediately. Dry weight was obtained after baking in a oven for about 18 h at 120° C. Cerebral water content was calculated according to the following equation: Cerebral water content (%)=(cerebral wet weight−cerebral dry weight)/cerebral wetweight×100.

[3] = tested on: cerebral ischemia/reperfusion model rats; experiment: Focal cerebral ischemia/reperfusion model, Edaravone versus combinations 2:1, 4:1, 9:1 (Example 18); assay type: in vivo, Wistar rats
Description: 1.1 Animals: Healthy male Wistar rats weighing 280-320 g.
1.2 Drugs and Reagents: Edaravone for injection (2 mg/mL) of Example 1, and Edaravone+natural borneol for injection of Examples 5, 7 and 11.
Experimental methods and evaluation methods are the same as Example 13.

New Zealand rabbits = experiment: Repeated intravenous toxicity in rabbits: hematuria, gross necropsy, histopathology (Example 19); assay type: in vivo; conditions: for incidence of hematuria: marginal ear vein once daily, 6 rabbits
Description: 1.1 Animals: 36 New Zealand rabbits, general grade, with body weight of 2.0-3.0 kg, 18 ♂ and 18 ♀(female and male) respectively.
1.2 Drugs and Reagents: drugs obtained from Examples 12, 13, 14 and 15; 1,2-propylene glycol, 0.9% sodium chloride injection.
Edaravone 80 mg/kg (propylene glycol content: 40%)
Edaravone 20 mg/kg (propylene glycol content: 10%)
Combined Edaravone 120 mg/kg (propylene glycol content: 50%)
Combined Edaravone 30 mg/kg (propylene glycol content: 10%)
Combined Edaravone in this Example refers to Edaravone+natural borneol (weight ratio=2:1).
In the above dosage groups, the dosage per day per rabbit was calculated according to actual weight of each rabbit. The test drugs were administrated in equal volume according to body weight of respective rabbits.
36 rabbits were numbered and randomly divided into six groups according to the body weight, including 4 dosage groups, “Edaravone+natural borneol (weight ratio=2:1)” 120 mg/kg, 30 mg/kg; “Edaravone” 80 mg/kg, 20 mg/kg; as well as vehicle group (40% propylene glycol solution) and solvent group (0.9% sodium chloride injection). There were 6 rabbits in each group, including 3 males and 3 females each. Rabbits were habituated and observed for 3 days before the test. During the test, rabbits were dosed once at the same time in each morning via marginal ear vein injection. Rabbits in high dosage groups were continuously dosed for 13 days, while in low dosage groups, solvent group and vehicle group for 20 days. The dosage were regulated in accordance with body weight variation. Animal responses, stimulations at injection sites and histopathological examination in kidneys and injection site were used to comprehensively evaluate the toxicity of either combined Edaravone or Edaravone on the rabbits.

[4] = Edaravone 80 and 20 mg/kg groups, combined Edaravone 120 and 30 mg/kg groups

Row | SMILES | neurological deficit symptoms score ([1]; modified Bederson 5-point score, four administrations (0, 2, 4, 24 h after ischemia), model 2.6 ± 0.52) | brain lesion ([1]; percentage of brain lesion by formazan absorbance at 485 nm, model 33.2 ± 14.8) | cerebral infarction area ([1]; percentage of infarction area by TTC image analysis, model 27.4 ± 13.4) | Cerebral infarction size (%) [2] | neurological deficit score (points) [2] | Cerebral water content (%) [2] | cerebral edema / cerebral water content compared with control group [2] | effect on symptoms of neurological deficits [2] | neurological deficit symptoms score ([3]; Edaravone 3 mg/kg, combination dose not given, mean ± SD, n=8, model 2.7 ± 0.5) | cerebral infarction area ([3]; Edaravone 3 mg/kg, combination dose not given, mean ± SD, n=8, model 25.4 ± 14.8) | brain lesion ([3]; Edaravone 3 mg/kg, combination dose not given, mean ± SD, n=8, model 32.2 ± 15.1) | cerebral infarction area compared with model group ([3]; F4,35=4.62, P=0.03, 4:1 and 9:1 P=0.081) | severity of brain lesion compared with model group ([3]; F4,35=5.78, P=0.04, 4:1 and 9:1 P=0.159) | gross necropsy: rabbits with a swollen kidney (New Zealand rabbits; 20 mg/kg i.v. daily, 20 days) | incidence of hematuria (New Zealand rabbits; 20 mg/kg, 20 days, propylene glycol 10%) | gross necropsy: liver finding (New Zealand rabbits; 80 mg/kg i.v. daily, 13 days) | gross necropsy: rabbits with khaki and swollen kidney having uneven surface (New Zealand rabbits; 80 mg/kg i.v. daily, 13 days) | incidence of hematuria (New Zealand rabbits; 80 mg/kg, 13 days, propylene glycol 40%) | histopathological examination: injection sites (New Zealand rabbits; [4]) | histopathological examination: kidney (New Zealand rabbits; [4])
1 | COCCOC(=O)C1=C(C)NC(C)=C(C(=O)OC(C)C)C1c1cccc([N+](=O)[O-])c1 (stereo not shown) [Nimodipine] | 1.1 ± 0.58 | 11.6 ± 5.0 | 8.8 ± 4.0 |  |  |  |  |  |  |  |  |  |  |  |  |  |  |  |  | 
2 | CC1(C)C2CCC1(C)C(O)C2 (stereo not shown) [Natural borneol, dextro-camphol] |  |  |  | 19.8 ± 6.37 % | 2.0 ± 0.98 points | 81.25 ± 0.97 % | significant effect | Neither Edaravone alone nor natural borneol alone had significant effect |  |  |  |  |  |  |  |  |  |  |  | 
3 | CC1=NN(c2ccccc2)C(=O)C1 [Edaravone, 3-methyl-1-phenyl-2-pyrazolin-5-one] |  |  |  | 18.0 ± 5.29 % | 2.5 ± 1.02 points | 81.65 ± 1.24 % | significant effect | Neither Edaravone alone nor natural borneol alone had significant effect | 0.94 ± 0.46 | 9.7 ± 4.6 | 11.6 ± 9.7 | significantly reduced | significantly reduced | 3 of 6 | 100% | one of the rabbits suffered hepatonecrosis and had a khaki and hard liver | 3 of 6 | 100% | stimulatory changes such as vascular occlusion to varied extents | progressive renal lesion such as renal tubular lesion, inflammatory infiltration of mesenchyme, and glomerular lesion
